Read-outs that look alike come from different tables or passages of the source.
Experiments:
[1] = acutely, 250 mg per ml of lithium; cited from earlier work
[2] = tested on: desheathed ferret vagus nerves (C fibers); experiment: In vitro recording of electrically stimulated compound action potentials from desheathed ferret vagus nerves (depression of action potential); type: cell-based; details: for IC50: read-out: ED50 (the source's name); for shift in the dose/response curve: lithium Lockes versus sodium Lockes, FIGS. 1 to 4; for in vitro ED50 reduction relative to control values: lithium-containing versus sodium Lockes vehicle
Experimental: To test if replacement of lithium ions for sodium ions reduced the required local anesthetic dose, an in vitro experiment was performed, wherein the electrically stimulated compound action potentials were recorded from desheathed ferret vagus nerves, which are an enriched source of C fibers.
The ferret vagus nerves were removed bilaterally and were desheathed under a Zeiss dissecting microscope with a magnification of 2.5X. A single desheathed nerve was then placed in a chamber interlaced with electrodes for stimulating and recording action potentials. The central section of the nerve passes through the central well containing either buffer or drug in buffer.
The stimulation voltage was adjusted to provide maximal action potential. The stimulus duration was 0.5 milliseconds. Stimulation and recording parameters were programmed, and stimuli were presented at 2 second intervals. Five successive action potentials were averaged and stored as an estimate of action potential activity each minute. The intervening […] action potential were discarded.
Control nerves were bathed in a 100% sodium Locke's solution, synthesized in the manner set forth in Synthesis Example 1 above. Experimental nerves were bathed in lithium Locke's solution, comprising 35 mol Eq. % lithium, 65 mol Eq. % sodium Locke's solution, synthesized in the manner set forth in Synthesis Example 2 above.
The electrical stimuli were applied to one end of the nerve, while on the other end, the resulting action potential propagation was measured using an oscilloscope and the recording computer. Varying doses of mepivacaine were administered to the nerves so that dose/response curves could be constructed under both ionic conditions.
Following a period of equilibration in a buffer where control recordings are made, the well was emptied and a molar concentration of a test anesthetic was added. Various molar concentrations of mepivacaine, an amide type local anesthetic (Sterling-Winthrop Research Institute, Rensselear, N.Y.), and procaine, an ester type local anesthetic (Sigma Chemical Co., St. Louis, Mo.) were tested in both sodium and lithium Locke's buffer vehicles, as described above.
Compound action potentials having two distinct peaks, labeled as A and C peaks, are observed and were recorded at 2 second intervals. Five consecutive action potentials were recorded for each one minute time period over 30 minutes. At 30 minutes, the anesthetic was removed and the chamber was perfused with buffer. Recording was continued during this 30 minute period. The averaged data, collected every 2 minutes, was then analyzed to determine the slope of the action potential, the height of the action potential, the area under the curve of the action potential and the conduction velocity. This was done for both the A and C peaks.
The data were then plotted as percent of control versus time. Other molar concentrations were administered from the dose where there was no effect on the A peak, and to a dose where the action potential was depressed to zero.
Inspection of the data allowed recording of the maximal observed effect for each of the concentrations studied. This observed maximum (or an asymptotic value derived from an appropriate equation) was used to generate log-probit linear regressions of the dose versus the effect. This is accomplished by conversion of the percent effect to the corresponding probit value, conversion of the dose to its log10 and fitting a first degree polynomial to the resultant data by the method of least squares.
The 95% confidence band was calculated and plotted for the data. From the equations of the best fit line and the confidence bands, doses estimated to produce 50, 90 and 95% depression of the four parameters were calculated for both the A and C peaks of the action potentials.
Table 1 was prepared using the results of each of the concentrations onsets (T 85%). […]

[3] = tested on: tooth pulps of the central incisors of rabbits; experiment: In vivo electrically stimulated tooth pulp pain model (rabbit tooth pulp assay)
Experimental: To confirm the results of the in vitro experiments in vivo, an electrically stimulated tooth pulp pain model was used. The tooth pulps of the central incisors of rabbits were exposed using a high speed burr and dental drill.
Electrodes were inserted into the pulp chambers and the voltage required to elicit a lick/chew response was measured. The percentage analgesia was calculated from the following equation:
MPE=((TV-CV)/(10 V-CV))×100
wherein TV is the voltage after treatment; CV is the control voltage, and 10 V are the maximum volts applied.
The percent analgesia was recorded 0, 5, 10, 15, 30, 60, 120 and 180 minutes after injection.

[4] = control (sodium Lockes) buffer vehicle
[5] = in the lithium-containing buffer vehicle

Row | Structure (SMILES) | acute tolerability [1] | IC50 [2, 4] | IC50 [2, 5] | shift in the dose/response curve [2] | in vitro ED50 reduction relative to control values [2] | shift in the dose/response curves ([3]; lithium Lockes versus sodium Lockes, FIGS. 5 and 6) | in vivo ED50 reduction relative to standard sodium Lockes vehicle ([3]; lithium Lockes versus standard sodium Lockes vehicle) | ED50 ([3]; lithium present in the buffer vehicle) | ED50 ([3]; without lithium (sodium Lockes))
1 | [Li] [lithium] | well tolerated |  |  |  |  |  |  |  | 
2 | Cc1cccc(C)c1NC(=O)C1CCCCN1C (stereo not shown) [mepivacaine] |  | 420 µM | 270 µM | not parallel and demonstrated that the effect of lithium was most pronounced at lower concentrations | reduced to half their control values | not parallel and demonstrated that the effect of lithium was most pronounced at lower concentrations | reduced to one third of its value | 0.69% | 1.93%
3 | CCN(CC)CCOC(=O)c1ccc(N)cc1 [procaine] |  | 540 µM | 190 µM | not parallel and demonstrated that the effect of lithium was most pronounced at lower concentrations | reduced to half their control values |  |  |  | 
